Converted amounts (≈) assume the structure as drawn. Values belong to the molecule of their own block, whether it stands above or below them.
Experiments:
[1] = Prodrug conversion in PBS assessed as half life for 50% release of 2-Aminobenzimidazole in pH 7.4 at 37 degC after 1 hr by ESI-mass spectrometry; type: ADME; conditions: buffer, pH 7.4, 1 h
[2] = Prodrug conversion in PBS assessed as half life for 50% release of Quinine in pH 7.4 at 37 degC after 1 hr by ESI-mass spectrometry; type: ADME; conditions: buffer, pH 7.4, 1 h
[3] = Prodrug conversion in PBS assessed as half life for 50% release of Quinine in pH 7.4 at 37 degC by ESI-mass spectrometry; type: ADME; conditions: buffer, TDE = time-dependent effect
[4] = Prodrug conversion in PBS assessed as half life for 50% release of ritonavir in pH 7.4 at 37 degC after 1 hr by ESI-mass spectrometry; type: ADME; conditions: buffer, pH 7.4, 1 h
[5] = Prodrug conversion in PBS assessed as half life for 50% release of Phenytoin in pH 7.4 at 37 degC after 1 hr by ESI-mass spectrometry; type: ADME; conditions: buffer, pH 7.4, 1 h
[6] = Prodrug conversion in PBS assessed as half life for 50% release of Sulfathiazole in pH 7.4 at 37 degC after 1 hr by ESI-mass spectrometry; type: ADME; conditions: buffer, pH 7.4, 1 h
[7] = Solubility of the compound in water at room temperature after 15 mins by HPLC analysis; type: physicochemical
[8] = Stability of the compound in methanol-CH3CN at 4 degC after 1 month by HPLC analysis; type: physicochemical; conditions: 730.5 h

SMILES: N=C(N)NCC(=O)Nc1nc2ccccc2[nH]1.O=C(O)C(F)(F)F
t1/2 [1]: 38 min

SMILES: C=C[C@@H]1CN2CC[C@H]1C[C@H]2[C@H](OC(=O)CCCN)c1ccnc2ccc(OC)cc12.O=C(O)C(F)(F)F
t1/2 [2]: 102 min
Drug metabolism [3]: tde

t1/2 [4]: 42 h
SMILES: CC(C)c1nc(CN(C)C(=O)N[C@H](C(=O)N[C@@H](Cc2ccccc2)C[C@H](O)[C@H](Cc2ccccc2)NC(=O)OCc2cncs2)C(C)C)cs1 [RITONAVIR]

SMILES: C[C@H](NC(=N)N)C(=O)N1C(=O)NC(c2ccccc2)(c2ccccc2)C1=O.O=C(O)C(F)(F)F
t1/2 [5]: 1.1 min

SMILES: C[C@H](NC(=N)N)C(=O)Nc1ccc(S(=O)(=O)Nc2nccs2)cc1.O=C(O)C(F)(F)F
t1/2 [6]: 40 min
solubility at 0.25 h [7]: 7100 µg/mL
Stability [8]: Stable

SMILES: C=C[C@@H]1CN2CC[C@H]1C[C@H]2[C@H](OC(=O)CNC(=N)N)c1ccnc2ccc(OC)cc12.O=C(O)C(F)(F)F
t1/2 [2]: < 1 min

SMILES: C=C[C@@H]1CN2CC[C@H]1C[C@H]2[C@H](OC(=O)CCNC(=N)N)c1ccnc2ccc(OC)cc12.O=C(O)C(F)(F)F
t1/2 [2]: 1.1 min
solubility at 0.25 h [7]: > 10000 µg/mL
Stability [8]: Stable

solubility at 0.25 h [7]: 6.3 µg/mL (≈ 25 µM)
SMILES: O=C1NC(=O)C(c2ccccc2)(c2ccccc2)N1 [PHENYTOIN]

SMILES: CN(CC(=O)N1C(=O)NC(c2ccccc2)(c2ccccc2)C1=O)C(=N)N.O=C(O)C(F)(F)F
t1/2 [5]: 0.78 min

SMILES: N=C(N)NCC(=O)N1C(=O)NC(c2ccccc2)(c2ccccc2)C1=O.O=C(O)C(F)(F)F
t1/2 [5]: 13 min
solubility at 0.25 h [7]: 10200 µg/mL
Stability [8]: Stable

SMILES: Nc1ccc(S(=O)(=O)Nc2nccs2)cc1.O=C(O)C(F)(F)F
solubility at 0.25 h [7]: 1.4 µg/mL
